Results reported in publication PMC2695807, “Plant Insecticide L-Canavanine Repels Drosophila via the Insect Orphan GPCR DmX” (PLoS Biology, 2009).

Target: T1, DmX receptor (DmXR) (Drosophila melanogaster, UniProt Q70GQ8)
T1 construct: gene mtt; HA-DmXR WT, transiently expressed in HEK 293 cells
T1 sequence (Q70GQ8 1-1073): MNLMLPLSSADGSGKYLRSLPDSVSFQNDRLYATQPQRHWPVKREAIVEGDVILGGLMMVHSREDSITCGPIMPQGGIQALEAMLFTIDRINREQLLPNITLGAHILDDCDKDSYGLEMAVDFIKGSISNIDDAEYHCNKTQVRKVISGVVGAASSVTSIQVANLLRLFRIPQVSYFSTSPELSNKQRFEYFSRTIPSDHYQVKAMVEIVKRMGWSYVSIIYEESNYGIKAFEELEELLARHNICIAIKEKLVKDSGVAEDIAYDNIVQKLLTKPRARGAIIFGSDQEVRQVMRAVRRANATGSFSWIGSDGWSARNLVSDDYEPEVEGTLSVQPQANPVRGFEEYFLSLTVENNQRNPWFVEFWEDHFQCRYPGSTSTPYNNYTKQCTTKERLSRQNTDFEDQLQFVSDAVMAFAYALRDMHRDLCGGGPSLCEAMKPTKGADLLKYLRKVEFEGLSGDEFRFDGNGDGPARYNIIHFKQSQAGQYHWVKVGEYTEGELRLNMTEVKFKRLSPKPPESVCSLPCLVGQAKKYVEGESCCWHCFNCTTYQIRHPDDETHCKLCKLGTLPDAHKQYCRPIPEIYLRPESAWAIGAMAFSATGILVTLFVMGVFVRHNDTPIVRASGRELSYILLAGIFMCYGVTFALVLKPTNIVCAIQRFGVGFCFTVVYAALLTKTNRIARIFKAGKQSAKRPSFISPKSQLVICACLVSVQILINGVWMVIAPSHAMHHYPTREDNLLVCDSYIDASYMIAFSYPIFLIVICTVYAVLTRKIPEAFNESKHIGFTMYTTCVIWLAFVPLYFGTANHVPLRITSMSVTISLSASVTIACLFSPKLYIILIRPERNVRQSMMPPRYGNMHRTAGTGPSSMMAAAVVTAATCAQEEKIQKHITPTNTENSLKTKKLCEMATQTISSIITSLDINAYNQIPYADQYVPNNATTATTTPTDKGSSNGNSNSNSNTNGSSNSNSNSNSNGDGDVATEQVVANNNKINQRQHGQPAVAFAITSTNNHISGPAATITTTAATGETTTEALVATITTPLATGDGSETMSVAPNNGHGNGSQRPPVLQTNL
Assay: IP accumulation in HEK cells coexpressing DmXR and Gqi9; inhibition of activation by […] L-canavanine (antagonist)
Assay type: cell-based

`CN=C(N)NCCC[C@H](N)C(=O)O` [NMA, N-methyl-L-arginine] was tested, and the IC50 was 200 ± 200 µM.
